The results in this text go back to patent US6660870B1, “2-acylaminobenzimidazole derivatives for treating glaucoma” (Alcon, Inc., priority 2000, dated 2003).

In one experiment the target is T1, 5-HT2 receptor (Rattus norvegicus, UniProt P14842).
T1 construct: A7r5 rat vascular smooth muscle cells; endogenous in cells; host or cells: A7r5 rat vascular smooth muscle cells
The experiment in a line: 5-HT2 Functional Assay: Phosphoinositide (PI) Turnover Assay. Type of experiment: cell-based. The settings on record: for pEC50: [3H]inositol phosphate production in A7r5 rat vascular smooth muscle cells. As to the method:
5-HT2 Functional Assay: Phosphoinositide (PI) Turnover Assay
The relative agonist activity of serotonergic compounds at the 5-HT2 receptor can be determined in vitro using the ability of the compounds to stimulate the production of [^3H]inositol phosphates in [^3H]myo-inositol-labeled A7r5 rat vascular smooth muscle cells by their ability to activate the enzyme phospholipase C. These cells are grown in culture plates, maintained in a humidified atmosphere of 5% CO2 and 95% air and fed semi-weekly with Dulbecco's modified Eagle medium (DMEM) containing 4.5 g/l glucose and supplemented with 2 mM glutamine, 10 μg/ml gentamicin, and 10% fetal bovine serum. For the purpose of conducting the phosphoinositide (PI) turnover experiments, the A7r5 cells are cultured in 24-well plates as previously [J. Pharmacol. Expt. Ther., 286, 411 (1998)]. Confluent cells are exposed for 24-30 hrs to 1.5 μCi [^3H]-myo-inositol (18.3 Ci/mmol) in 0.5 ml of serum-free medium. Cells are then rinsed once with DMEM/F-12 containing 10 mM LiCl prior to incubation with the test agent (or solvent as the control) in 1.0 ml of the same medium for 1 hr at 37° C., after which the medium is aspirated and 1 ml of cold 0.1 M formic acid added to stop the reaction. The chromatographic separation of [^3H]-inositol phosphates ([^3H]-IPs) on an AG-1-X8 column is performed as previously described [J. Pharmacol. Expt. […] The eluate (4 ml) is collected, mixed with 15 ml scintillation fluid, and the total [^3H]-IPs determined by scintillation counting on a beta-counter. Concentration-response data are analyzed by the sigmoidal fit function of the Origin Scientific Graphics software (Microcal Software, Northampton, Mass.) to determine agonist potency (EC50 value) and efficacy (Emax). Serotonin (5-HT) is used as a positive control (standard) agonist compound and the efficacy of test compounds is compared to that of 5-HT (set at 100%).

A further experiment has as its target brain 5-HT2 receptors (Rattus norvegicus, UniProt P14842). The experiment in a line: 5-HT2 Receptor Binding Assay ([125I]DOI competition). Particulars: competition for [125I]DOI binding, post mortem rat or human cerebral cortex homogenates. How it is done: 5-HT2 Receptor Binding Assay
Aliquots of post mortem rat or human cerebral cortex homogenates (400 μl) dispersed in 50 mM TrisHCl buffer (pH 7.4) are incubated with [^125I]DOI (80 pM final) in the absence or presence of methiothepin (10 μM final) to define total and non-specific binding, respectively, in a total volume of 0.5 ml. The assay mixture is incubated for 1 hour at 23° C. in polypropylene tubes and the assays terminated by rapid vacuum filtration over Whatman GF/B glass fiber filters previously soaked in 0.3% polyethyleneimine using ice-cold buffer. Test compounds (at different concentrations) are substituted for methiothepin. Filter-bound radioactivity is determined by scintillation spectrometry on a beta counter. The data are analyzed using a non-linear. iterative curve-fitting computer program [Trends Pharmacol. Sci., 16, 413 (1995)] to determine the compound affinity parameter. The concentration of the compound needed to inhibit the [^125I]DOI binding by 50% of the maximum is termed the IC50 […].

pEC50, pIC50: −log10 of the molar value.

T1 sequence (P14842 whole entry): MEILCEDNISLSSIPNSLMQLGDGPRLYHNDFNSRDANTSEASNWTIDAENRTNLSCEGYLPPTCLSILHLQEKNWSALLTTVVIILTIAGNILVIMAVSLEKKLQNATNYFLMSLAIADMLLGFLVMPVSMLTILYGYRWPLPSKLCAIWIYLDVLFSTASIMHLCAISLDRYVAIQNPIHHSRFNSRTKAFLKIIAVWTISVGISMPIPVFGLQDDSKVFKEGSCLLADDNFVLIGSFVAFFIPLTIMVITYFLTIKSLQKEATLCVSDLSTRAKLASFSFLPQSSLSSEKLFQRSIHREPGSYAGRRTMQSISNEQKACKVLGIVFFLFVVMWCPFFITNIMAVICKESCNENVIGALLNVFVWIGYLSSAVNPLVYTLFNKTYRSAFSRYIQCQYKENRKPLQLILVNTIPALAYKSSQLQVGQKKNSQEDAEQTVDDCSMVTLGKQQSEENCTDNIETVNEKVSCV
brain 5-HT2 receptors, sequence (P14842 whole entry): as above

`COc1cc(C[C@@H](C)N)c(OC)cc1I` [(R)-DOI] had a pEC50 at 5-HT2 receptor of 6.56. Also, at brain 5-HT2 receptors, the pIC50 was 9.34.

In the case of `Cc1ccc(C(=O)Nc2nc3ccccc3n2CCN(C)C)cc1` [Example 1, 1-(N,N-Dimethylaminoethyl)-2-(4-methylbenzamido)benzimidazole], the Emax at 5-HT2 receptor (A7R5, read-out: Efficacy (Emax, %)) was determined as 35%. Also, the pEC50 at 5-HT2 receptor is 6.39.
